Laboratory results published in ChEMBL document CHEMBL1201862, “PubChem BioAssay data set” (2004).
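Dose response: 5 concentrations. Exposure: 48 h. Format: 96-well plates. Endpoint: linear interpolation; highest concentration if not reached. GI50 is the concentration that inhibits growth by half.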 Calls of active or inactive are those of the source. Cut-off read from the data, not from the text of the source: active = GI50 up to about 1.1 µM and inactive = higher.

Tests used:
Experiment in all cases: NCI anticancer screen, dose series, 48 h
[1] = tested on: UACC-257
[2] = tested on: LOX IMVI
[3] = tested on: SF-295
[4] = tested on: SF-539
[5] = tested on: SN12C
[6] = tested on: NCI-H460
[7] = tested on: UO-31
[8] = tested on: M19-MEL
[9] = tested on: KM12
[10] = tested on: HCT-15
[11] = tested on: EKVX
[12] = tested on: OVCAR-8
[13] = tested on: IGROV-1
[14] = tested on: Malme-3M
[15] = tested on: SNB-19
[16] = tested on: MOLT-4
[17] = tested on: SR

SMILES | GI50 [1] | GI50 [2] | GI50 [3] | GI50 [4] | GI50 [5] | GI50 [6] | GI50 [7] | GI50 [8] | GI50 [9] | GI50 [10] [µM] | GI50 [11] | GI50 [12] | GI50 [13] | GI50 [14] | GI50 [15] | GI50 [16] | GI50 [17]
Cc1ccc(S(=O)(=O)N/N=C\c2c3ccccc3[n+](C)c3ccccc23)cc1 | 30.8 µM (inactive) | 11.2 µM (inactive) | 13.8 µM (inactive) | 22.4 µM (inactive) | 48.6 µM (inactive) | 19.8 µM (inactive) | 26.9 µM (inactive) | 32.1 µM (inactive) | 34.6 µM (inactive) | 25.8 | 54.6 µM (inactive) | 38.5 µM (inactive) | 29.6 µM (inactive) | 32.4 µM (inactive) | 24.9 µM (inactive) | 17.6 µM (inactive) | –
O=C(O/N=C1/CCCC/C1=C\c1ccccc1)c1ccc(Cl)cc1 | > 100 µM (inactive) | 57.8 µM (inactive) | 47.4 µM (inactive) | > 100 µM (inactive) | > 100 µM (inactive) | > 100 µM (inactive) | > 100 µM (inactive) | > 100 µM (inactive) | > 100 µM (inactive) | > 100 | 42.1 µM (inactive) | > 100 µM (inactive) | > 100 µM (inactive) | > 100 µM (inactive) | > 100 µM (inactive) | – | 56.6 µM (inactive)
CCN(CC)CCC(=O)Nc1ccc2c(c1)C(=O)c1ccc(NC(=O)CCN(CC)CC)cc1C2=O | 14.8 µM (inactive) | 2.19 µM (inactive) | 11.3 µM (inactive) | 3.51 µM (inactive) | 2.84 µM (inactive) | 1.38 µM (inactive) | 84.1 µM (inactive) | > 100 µM (inactive) | 1.81 µM (inactive) | 2.97 | 3.25 µM (inactive) | 4.16 µM (inactive) | 4.06 µM (inactive) | – | 5.48 µM (inactive) | 2.07 µM (inactive) | 3.37 µM (inactive)
c1cnc2nc3n(c2c1)CSC3 | > 100 µM (inactive) | > 100 µM (inactive) | > 100 µM (inactive) | > 100 µM (inactive) | > 100 µM (inactive) | > 100 µM (inactive) | > 100 µM (inactive) | > 100 µM (inactive) | > 100 µM (inactive) | > 100 | > 100 µM (inactive) | > 100 µM (inactive) | > 100 µM (inactive) | > 100 µM (inactive) | – | > 100 µM (inactive) | –
O=[N+]([O-])c1nccn1COCCI | > 100 µM (inactive) | > 100 µM (inactive) | > 100 µM (inactive) | > 100 µM (inactive) | > 100 µM (inactive) | > 100 µM (inactive) | > 100 µM (inactive) | > 100 µM (inactive) | > 100 µM (inactive) | > 100 | > 100 µM (inactive) | > 100 µM (inactive) | > 100 µM (inactive) | > 100 µM (inactive) | > 100 µM (inactive) | > 100 µM (inactive) | > 100 µM (inactive)
CC1CCC2(OCCO2)[C@]2(C)CC(O)C(=O)C=C12 (some centres undefined) | > 100 µM (inactive) | – | > 100 µM (inactive) | > 100 µM (inactive) | > 100 µM (inactive) | > 100 µM (inactive) | > 100 µM (inactive) | > 100 µM (inactive) | > 100 µM (inactive) | > 100 | > 100 µM (inactive) | > 100 µM (inactive) | > 100 µM (inactive) | > 100 µM (inactive) | > 100 µM (inactive) | > 100 µM (inactive) | > 100 µM (inactive)
CC1(Cl)C(=O)NC(=O)N([C@H]2C[C@H](O)[C@@H](CO)O2)C1N=[N+]=[N-] (some centres undefined) | > 100 µM (inactive) | > 100 µM (inactive) | > 100 µM (inactive) | > 100 µM (inactive) | > 100 µM (inactive) | > 100 µM (inactive) | > 100 µM (inactive) | > 100 µM (inactive) | > 100 µM (inactive) | > 100 | > 100 µM (inactive) | > 100 µM (inactive) | > 100 µM (inactive) | > 100 µM (inactive) | > 100 µM (inactive) | > 100 µM (inactive) | > 100 µM (inactive)
Cc1ccccc1-n1c2nc(=O)n(C)c(=O)c-2nc2ccccc21 | 8.73 µM (inactive) | 15.7 µM (inactive) | 14.2 µM (inactive) | 15.2 µM (inactive) | 13.3 µM (inactive) | 9.55 µM (inactive) | 29.1 µM (inactive) | 1.85 µM (inactive) | 12.2 µM (inactive) | 11.1 | 11.8 µM (inactive) | 12.2 µM (inactive) | 19.2 µM (inactive) | 5.58 µM (inactive) | 14.6 µM (inactive) | 17.8 µM (inactive) | –
